Our source for the inhibition and competition values is paper PMC3445516 (PLoS ONE, 2012).

Read-outs that look alike come from different tables or passages of the source. A value given as a limit tells only on which side of the number the result lay.

Test in all cases: Ambit kinase profiling, competition binding
One assay addresses T1, CSNK1D (Homo sapiens, UniProt P48730).
T1 construct: purchased Ambit Biosciences (KINOMEscan)
Here is the method:
(§1) Also included in the kinase profile are four isoforms of PKC (δ, ε, η, θ) and eight isoforms of CAMKs (CAMKIα, δ, γ; CAMKIIα, β, δ, γ; CAMK4).
(§2) The global kinase profiling experiment was performed by Ambit Biosciences.

The target in the next assay is T2, IRAK3 (Homo sapiens, UniProt Q9Y616).
T2 construct: purchased Ambit Biosciences (KINOMEscan)
T2 sequence (Q9Y616 1-596): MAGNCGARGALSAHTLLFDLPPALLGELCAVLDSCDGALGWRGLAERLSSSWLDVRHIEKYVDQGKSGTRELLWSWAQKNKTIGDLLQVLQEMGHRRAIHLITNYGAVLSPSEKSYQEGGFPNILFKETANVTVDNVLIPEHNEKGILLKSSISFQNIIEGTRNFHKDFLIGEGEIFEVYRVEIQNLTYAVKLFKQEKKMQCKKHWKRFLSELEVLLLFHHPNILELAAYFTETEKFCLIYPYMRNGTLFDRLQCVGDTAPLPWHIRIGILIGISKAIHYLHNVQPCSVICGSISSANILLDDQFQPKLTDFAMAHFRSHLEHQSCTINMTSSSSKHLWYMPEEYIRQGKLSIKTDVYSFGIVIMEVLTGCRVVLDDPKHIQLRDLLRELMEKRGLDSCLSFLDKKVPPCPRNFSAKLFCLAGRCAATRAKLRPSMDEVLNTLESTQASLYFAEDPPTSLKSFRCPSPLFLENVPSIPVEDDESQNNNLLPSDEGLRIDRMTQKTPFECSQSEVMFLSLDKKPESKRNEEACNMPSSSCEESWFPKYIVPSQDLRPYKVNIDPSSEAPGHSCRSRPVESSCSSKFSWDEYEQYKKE
The procedure: as §1, §2

Another assay deals with T3, CAMKIIδ (Homo sapiens, UniProt Q13557).
T3 construct: purchased Ambit Biosciences (KINOMEscan)
Particulars: for competition: CAMKIIδ, 10 µM. Here is the method:
as §1, §2

The target of a further assay is T4, STK36 (Homo sapiens, UniProt Q9NRP7).
T4 construct: purchased Ambit Biosciences (KINOMEscan)
T4 sequence (Q9NRP7 1-1315): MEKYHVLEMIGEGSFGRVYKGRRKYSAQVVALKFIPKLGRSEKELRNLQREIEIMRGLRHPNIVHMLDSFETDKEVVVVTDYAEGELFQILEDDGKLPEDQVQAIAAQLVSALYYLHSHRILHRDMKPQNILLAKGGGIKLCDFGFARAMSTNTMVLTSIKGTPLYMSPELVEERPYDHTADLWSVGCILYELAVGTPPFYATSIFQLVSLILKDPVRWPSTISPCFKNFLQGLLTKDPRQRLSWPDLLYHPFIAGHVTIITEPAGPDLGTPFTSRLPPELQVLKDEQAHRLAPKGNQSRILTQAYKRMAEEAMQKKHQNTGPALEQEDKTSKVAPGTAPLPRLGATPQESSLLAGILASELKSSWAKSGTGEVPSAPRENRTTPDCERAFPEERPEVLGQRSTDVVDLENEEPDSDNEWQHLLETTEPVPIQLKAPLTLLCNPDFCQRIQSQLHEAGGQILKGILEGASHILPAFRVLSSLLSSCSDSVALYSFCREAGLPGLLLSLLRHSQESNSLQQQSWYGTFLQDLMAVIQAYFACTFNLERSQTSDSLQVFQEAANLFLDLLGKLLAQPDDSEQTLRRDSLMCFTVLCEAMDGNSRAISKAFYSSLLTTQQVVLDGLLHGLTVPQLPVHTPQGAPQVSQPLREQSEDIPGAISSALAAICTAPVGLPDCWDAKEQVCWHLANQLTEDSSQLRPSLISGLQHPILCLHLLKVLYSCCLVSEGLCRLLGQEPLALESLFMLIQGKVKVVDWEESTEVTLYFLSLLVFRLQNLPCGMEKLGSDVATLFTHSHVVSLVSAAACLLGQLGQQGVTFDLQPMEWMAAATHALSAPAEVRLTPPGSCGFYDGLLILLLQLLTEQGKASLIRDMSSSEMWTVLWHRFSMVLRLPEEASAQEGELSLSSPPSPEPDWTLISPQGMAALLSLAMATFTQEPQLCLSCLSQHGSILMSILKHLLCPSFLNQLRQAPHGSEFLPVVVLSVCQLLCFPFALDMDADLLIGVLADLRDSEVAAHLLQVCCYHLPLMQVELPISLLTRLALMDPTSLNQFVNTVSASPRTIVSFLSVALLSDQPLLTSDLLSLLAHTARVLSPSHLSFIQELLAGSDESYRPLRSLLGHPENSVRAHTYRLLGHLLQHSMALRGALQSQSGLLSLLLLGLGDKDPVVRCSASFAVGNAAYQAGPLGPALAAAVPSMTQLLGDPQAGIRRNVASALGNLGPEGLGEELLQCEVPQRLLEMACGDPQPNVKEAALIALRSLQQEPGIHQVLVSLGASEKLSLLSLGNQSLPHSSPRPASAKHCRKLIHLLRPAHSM
The procedure: as §1, §2

T3 sequence (Q13557 whole entry): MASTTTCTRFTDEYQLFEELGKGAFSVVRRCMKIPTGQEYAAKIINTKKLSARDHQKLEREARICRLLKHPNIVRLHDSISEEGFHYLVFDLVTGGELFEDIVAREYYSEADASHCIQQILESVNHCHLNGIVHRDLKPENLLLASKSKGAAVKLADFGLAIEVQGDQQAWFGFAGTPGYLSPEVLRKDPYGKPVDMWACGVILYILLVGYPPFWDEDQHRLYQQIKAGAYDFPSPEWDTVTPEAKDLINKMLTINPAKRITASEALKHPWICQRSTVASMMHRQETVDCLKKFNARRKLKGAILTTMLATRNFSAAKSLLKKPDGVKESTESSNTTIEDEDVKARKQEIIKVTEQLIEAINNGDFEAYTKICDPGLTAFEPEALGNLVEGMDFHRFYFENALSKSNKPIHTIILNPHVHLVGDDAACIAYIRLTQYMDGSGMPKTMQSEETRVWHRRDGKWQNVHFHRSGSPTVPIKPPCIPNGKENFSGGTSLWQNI
T1 sequence (P48730 whole entry): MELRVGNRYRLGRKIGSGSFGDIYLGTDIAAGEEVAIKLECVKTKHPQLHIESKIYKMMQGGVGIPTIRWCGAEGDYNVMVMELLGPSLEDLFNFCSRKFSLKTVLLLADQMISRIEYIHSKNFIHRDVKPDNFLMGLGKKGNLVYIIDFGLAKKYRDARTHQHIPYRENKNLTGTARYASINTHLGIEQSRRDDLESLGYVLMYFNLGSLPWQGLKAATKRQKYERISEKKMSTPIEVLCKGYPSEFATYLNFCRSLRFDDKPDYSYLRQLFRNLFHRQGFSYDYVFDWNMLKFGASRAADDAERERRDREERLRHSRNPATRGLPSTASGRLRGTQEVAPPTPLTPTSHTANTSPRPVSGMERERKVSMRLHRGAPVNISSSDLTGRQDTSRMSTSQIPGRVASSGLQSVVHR

`CC(O)CNc1cc(-c2[nH]c3cccnc3c2-c2ccc(F)cc2)ccn1` (stereo not drawn) [Compound 140]: the inhibition at 10 µM on CSNK1D (read-out: % Competition) is 96%; at IRAK3 (read-out: % Competition) it was under 50%; on STK36 (read-out: % Competition, STK36, 10 µM) it was 99 to 100%. Besides, the competition at CAMKIIδ is given as under 50%.
With `Fc1ccc(-c2c(-c3ccncc3)[nH]c3nccnc23)cc1` [RO1155697-000-005], the inhibition at 10 µM on CSNK1D (CSNK1D, compound concentration 10 uM, read-out: Percent Competition) is 97%; at IRAK3 (IRAK3, compound concentration 10 uM, read-out: Percent Competition), 75%; on CAMKIIδ (CAMK2D, compound concentration 10 uM, read-out: Percent Competition), under 50%; on STK36 (STK36, compound concentration 10 uM, read-out: Percent Competition), 100%.
Regarding `Fc1ccc(-c2c(-c3ccncc3)[nH]c3nccnc23)cc1` [Compound 122], the inhibition at 10 µM on CSNK1D (CSNK1D, 10 µM, read-out: % Competition) stood at 97%; at IRAK3 (IRAK3, 10 µM, read-out: % Competition), 75%; on STK36 (STK36, 10 µM, read-out: % Competition) it was 100%. On CAMKIIδ, this molecule showed a competition of under 50%.
